# Measurements taken from PubChem BioAssay (NCI).
# Several values for one entry are separate records, joined by “and”; a condition that tells them apart may be missing. Identical values can stand only once.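 The compound was tested at five concentrations on cells cultured in 96-well plates, with a 48-hour exposure period. GI50 is the concentration that inhibits growth by half. The concentration for full growth arrest is given as TGI.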
# Tests used:
# Assay in all cases: NCI-60 cell line screen, 48 h
# [1] = system: CAKI-1 renal
# [2] = system: DU-145 prostate
# [3] = system: EKVX NSCLC
# [4] = system: HCT-15 colon
# [5] = system: MDA-MB-435
# [6] = system: NCI-H522 lung
# [7] = system: SF-268 CNS
# [8] = system: SF-539 CNS
# [9] = system: TK-10 renal
# [10] = system: UACC-62 melanoma
Structure (SMILES),GI50 [1],TGI [1],GI50 [2],TGI [2],GI50 [3],TGI [3],GI50 [4],TGI [4],GI50 [5],TGI [5],GI50 [6],TGI [6],GI50 [7],TGI [7],GI50 [8],TGI [8],GI50 [9],TGI [9],GI50 [10],TGI [10]
CCN(CC)CCOc1ccc2c(-c3ccccc3)c(-c3ccc(OC)cc3)c(=O)oc2c1,3.07 µM,10.3 µM,10.5 µM,22.6 µM,6.14 µM,20.3 µM,2.64 µM,8.18 µM,3.3 µM,10.6 µM,4.92 µM,18.5 µM,8.4 µM,21.7 µM,5.48 µM,19.1 µM,11.6 µM,25.2 µM,3.82 µM,15 µM
Cc1ncnc2c1ccn2[C@@H]1C[C@H](Oc2cc(C(F)F)c(F)c3c2CNCC3)[C@@H](O)[C@H]1O,> 100 µM,> 100 µM,> 100 µM,> 100 µM,> 100 µM,> 100 µM,> 100 µM,> 100 µM,> 100 µM,> 100 µM,> 100 µM,> 100 µM,> 100 µM,> 100 µM,> 100 µM,> 100 µM,> 100 µM,> 100 µM,> 100 µM,> 100 µM
Cc1c(Br)c(Br)c2c3c1nc(N1CCNCC1)n3CCC2,1.45 µM,3.05 µM,1.67 µM,3.05 µM,1.9 µM,4.32 µM,1.69 µM,3.33 µM,1.73 µM,3.22 µM,1.49 µM,3.14 µM,2.12 µM,4.78 µM,1.64 µM,3.09 µM,1.56 µM,3.12 µM,1.62 µM,3.08 µM
COc1cc2c3c(n(CCCNCCCCN)c(=O)c2cc1OC)-c1cc2c(cc1C3=O)OCO2,,15 µM,0.0764 µM,5.16 µM,18.6 µM,42.7 µM,17.5 µM,> 54.4 µM,6.11 µM,20.4 µM,5.64 µM,> 100 µM,3.1 µM,10.3 µM,0.191 µM,2.74 µM,0.773 µM,10.1 µM,2.1 µM,11.3 µM
N=C1C(c2nc3ccccc3c(=O)[nH]2)=C(O)CN1c1cccc(Cl)c1,3.11 µM,> 29.3 µM,5.12 µM,> 57.9 µM,8.29 µM,> 100 µM,1.51 µM,> 100 µM,0.948 µM,3.8 µM,4.57 µM,> 100 µM,8.78 µM,> 100 µM,3.51 µM,24.8 µM,6.68 µM,> 50.6 µM,3.27 µM,> 100 µM
COc1ccc(/C=C/C(=O)OC2CC34CCNC35CC(OC5(OC)C2OC)c2ccc(OC)c(O)c24)cc1O (configuration not stated),,> 100 µM,,> 100 µM,,> 100 µM,,> 100 µM,,> 100 µM,49.6 µM and > 100 µM,> 100 µM,,> 100 µM,,> 100 µM,,> 100 µM,,> 100 µM
O=C(Nc1nc2ccc(OC(F)(F)F)cc2s1)c1ccc(F)cc1,2.29 µM,7.26 µM,3.44 µM,> 100 µM,2.65 µM,10.6 µM,3.04 µM,10.5 µM,2.98 µM,> 100 µM,3.14 µM,11.4 µM,3.71 µM,> 100 µM,2.26 µM,6.95 µM,4.06 µM,> 100 µM,3.59 µM,50.3 µM
CC[C@@]1(O)C(=O)OCc2c1cc1n(c2=O)Cc2cc3cc(O)ccc3nc2-1,0.042 µM,,,0.0786 µM,0.107 µM and 0.903 µM,,0.355 µM,20.8 µM and 42.5 µM,,1.09 µM,< 0.0075 µM,0.103 µM and 0.447 µM,0.0192 µM,,,0.0495 µM and 0.0166 µM,,44.9 µM,,0.0795 µM and 0.0565 µM
CCNCCS(=O)(=O)NC[C@@]1(c2ccccc2)SC(NC(=O)C(C)(C)C)=NN1C(=O)C(C)(C)C,0.694 µM,> 100 µM,< 0.0159 µM,> 100 µM,< 0.0314 µM,> 100 µM,0.399 µM,> 100 µM,< 0.01 µM,< 0.01 µM,< 0.01 µM,< 0.01 µM,< 0.01 µM,> 100 µM,< 0.01 µM,0.768 µM,19.3 µM,> 100 µM,< 0.01 µM,> 100 µM
CCCCCCCCCCCCCCCC(=O)OCC1OC(OCCCC)[C@H](O[C@@H]2OC(C)C(OC(=O)CCC)C(O)C2O)C(O)C1O (some centres not stated),12.9 µM,26.2 µM,19.7 µM,35 µM,19.4 µM,36.5 µM,22.5 µM,55.7 µM,13.3 µM,27.3 µM,21.1 µM,46.7 µM,18.4 µM,42.4 µM,21 µM,36.8 µM,15.6 µM,30.2 µM,10.2 µM,23.6 µM
COc1cccc(N2C(=N)/C(=C3\Nc4ccccc4S3)CC2=O)c1,8.21 µM,> 100 µM,44.3 µM,> 100 µM,> 100 µM,> 100 µM,0.815 µM,> 100 µM,> 100 µM,> 100 µM,8.22 µM,> 100 µM,5.22 µM,> 100 µM,5.4 µM,> 100 µM,17.8 µM,> 100 µM,> 100 µM,> 100 µM
Oc1c(Cl)cc(Cl)c(Cl)c1Cc1c(O)c(Cl)cc(Cl)c1Cl,0.525 µM,7.36 µM,4.13 µM,22.1 µM,0.973 µM,16.7 µM,0.528 µM,13.7 µM,1.93 µM,12.8 µM,0.521 µM,9.66 µM,1.08 µM,17.5 µM,3.39 µM,18.8 µM,3.04 µM,35.5 µM,0.335 µM,12 µM
Nc1ncc(-c2ccc3ncnc(N4CCc5cc(F)c(Cl)cc54)c3c2)cc1C=O,0.845 µM,> 26.2 µM,0.936 µM,> 100 µM,0.371 µM,> 100 µM,2.41 µM,> 100 µM,0.909 µM,6.97 µM,2.17 µM,> 100 µM,1.02 µM,> 100 µM,2.38 µM,> 100 µM,0.248 µM,3.65 µM,0.574 µM,3.02 µM
O=C(O)C1CC[N-]CC1.O=C(O)C1CC[N-]CC1.[NH2-].[NH2-].[Pt+4],> 100 µM,> 100 µM,> 100 µM,> 100 µM,> 100 µM,> 100 µM,> 100 µM,> 100 µM,> 100 µM,> 100 µM,> 100 µM,> 100 µM,> 100 µM,> 100 µM,> 100 µM,> 100 µM,> 100 µM,> 100 µM,> 100 µM,> 100 µM
N#CC(Cl)CS(=O)(=O)c1ccccc1 (configuration not stated),,10.2 µM,,32.4 µM,,38.6 µM,,5.38 µM,,32.1 µM,,2.26 µM,,24.3 µM,,28.5 µM,,6.85 µM,,26.5 µM
O=C(O)c1cc(-c2ccc(-c3ccccc3)cc2)nc2cc3ccccc3cc12,,> 100 µM,,> 100 µM,,> 100 µM,,> 100 µM,,> 100 µM,,> 100 µM,,> 100 µM,,> 100 µM,,> 100 µM,,> 100 µM
Nc1nc(N)c2c(Cl)c(CNc3ccc(Cl)c(Cl)c3)ccc2n1,,16 µM,,15.7 µM,,19.2 µM,,13.6 µM,,17.5 µM,,9.56 µM,,15.7 µM,,1.21 µM,,12.4 µM,,13.7 µM
C/C(=N\O)C1CC(CC(=O)O)C1(C)C (configuration not stated),,> 100 µM,,> 100 µM,,> 100 µM,,> 100 µM,,> 100 µM,,> 100 µM,,> 100 µM,,> 100 µM,,> 100 µM,,> 100 µM
CCc1nc(N)nc(N)c1-c1ccc(N2CCNCC2)c([N+](=O)[O-])c1,,> 100 µM,,> 100 µM,,> 100 µM,,> 100 µM,,> 100 µM,,> 100 µM,,> 37.5 µM,,> 100 µM,,> 100 µM,,> 100 µM
CN(C)Cc1ccc(O)c(CN(C)C)n1,,> 100 µM,,> 100 µM,,> 100 µM,,> 100 µM,,> 100 µM,,> 100 µM,,> 100 µM,,> 100 µM,,> 100 µM,,> 100 µM
COc1ccc(/C=C/C(=O)C(=O)/C=C/c2ccc(OC)c(OC)c2)cc1OC,3.17 µM,> 100 µM,3.08 µM,14.2 µM,5 µM,> 100 µM,0.769 µM,6.18 µM,1.16 µM,2.98 µM,3.75 µM,19.3 µM,2.53 µM,8.58 µM,2.13 µM,5.16 µM,3.83 µM,25 µM,1.92 µM,4.87 µM
